According to patent US20240010726A1, “LFA-1 SIGNALLING MEDIATOR FOR USE IN CANCER THERAPY” (Universität Basel, priority 2020, published 2024):

How the values were obtained:
PC3-PIP tumor cells = experiment: Anti-PSMA CAR T cell in vivo experiment with Mg2+-restricted diet; parameters: species or system NSG mice; details: Mg^2+-depleted diet vs control diet; anti-PSMA CAR T cells i.v.
Description: FIG. 3: Magnesium regulates LFA-1 mediated T cell activation and cytotoxicity as well BiTE- and CAR T-cell functionality. (a) Glycolytic switch of murine WT and LFA-1^−/− CTLs upon injection of anti-CD3/28 Ab in medium containing 1.2 mM Mg^2+ and 0 mM Mg^2+, presented as quantification of summarized data with n=4 mice. (b) Calcium flux in WT and LFA-1^−/− Jurkat T cells stimulated with anti-CD3 Ab in 1.2 mM and 0 mM Mg^2+ medium, respectively. Cells were loaded with Fluo4, and signal intensity as recorded by plate reader, was normalized to unstimulated baseline values. […] Quantified results of n=3 mice with 3 technical replicates each. […] The effector to target cell ratio was 3:1. Results are quantified of n=3 mice with 3 technical replicates each. (e) Representative CD11a (LFA-1) surface expression on human naïve and EM CD8 T cells, PHA T cell blasts and REP T cells, assessed by flow cytometry. […] Data is presented as quantified results of n=5 healthy donors (f, g, h), n=3 healthy donors with 2 technical replicates each or n=1 healthy donor with 4 technical replicates (j). […] Data is presented as quantified results of n=1 healthy donor with 4 technical replicates. […] (p) Abundance of IFNγ in cell culture supernatants corresponding to the conditions depicted in (o) at 24 hours was determined by ELISA (n=8, 3 independent experiments). […] Tumor volume was monitored twice per week. […]

PSMA+ PC3-PIP cell line = experiment: Cytotoxicity assay with anti-PSMA CAR T cells (IncuCyte); type: cell-based, human; details: time-lapse killing; E:T 2:1; 0 mM vs 0.6 mM Mg^2+
Description: FIG. 3: Magnesium regulates LFA-1 mediated T cell activation and cytotoxicity as well BiTE- and CAR T-cell functionality. (a) Glycolytic switch of murine WT and LFA-1^-/- CTLs upon injection of anti-CD3/28 Ab in medium containing 1.2 mM Mg^2+ and 0 mM Mg^2+, presented as quantification of summarized data with n=4 mice. (b) Calcium flux in WT and LFA-1^-/- Jurkat T cells stimulated with anti-CD3 Ab in 1.2 mM and 0 mM Mg^2+ medium, respectively. Cells were loaded with Fluo4, and signal intensity as recorded by plate reader, was normalized to unstimulated baseline values. […] Quantified results of n=3 mice with 3 technical replicates each. […] The effector to target cell ratio was 3:1. Results are quantified of n=3 mice with 3 technical replicates each. (e) Representative CD11a (LFA-1) surface expression on human naïve and EM CD8 T cells, PHA T cell blasts and REP T cells, assessed by flow cytometry. […] The effector to target cell ratio was 1:1. Data is presented as quantified results of n=5 healthy donors (f, g, h), n=3 healthy donors with 2 technical replicates each or n=1 healthy donor with 4 technical replicates (j). […] Data is presented as quantified results of n=1 healthy donor with 4 technical replicates. […] (p) Abundance of IFNγ in cell culture supernatants corresponding to the conditions depicted in (o) at 24 hours was determined by ELISA (n=8, 3 independent experiments). […]

[Mg+2] [Mg^2+, Magnesium]
CAR T cell-mediated tumor rejection (tumor growth) (PC3-PIP tumor cells): negatively impacted CAR T cell-mediated tumor-rejection | Cytolytic activity of CAR T cells against tumor target cells (PSMA+ PC3-PIP cell line): impaired the cytolytic activity
